Consider ten molecules from PubChem BioAssay (NCI).

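In this assay, cells in 96-well plates receive the compound at five concentrations for 48 hours. Endpoints are linearly interpolated between the surrounding concentrations. TGI denotes the concentration required for complete inhibition of growth.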 Bounds are passed on as bounds.

Common to all, as to test: DTP human tumour cell line panel, 48 h
The subject of assay [1] is A549 NSCLC.
In assay [2] the test system is SW-620 colon.
Assay [3] has as its system PC-3 prostate.
In assay [4] the test system is UACC-62 melanoma.
The test system of assay [5] is OVCAR-8 ovarian.
In assay [6] the test system is EKVX NSCLC.
In assay [7] the test system is 786-0 renal.
Assay [8] has as its system T-47D breast.
For assay [9], the system named is COLO 205 colon.
Assay [10] has as its system K-562 leukemia.
Assay [11] relates to SN12C renal.
Assay [12] deals with NCI-H522 lung.
Assay [13] deals with UO-31 renal.
Assay [14] deals with SF-539 CNS.
Assay [15] relates to SNB-19 CNS.

Turning to `Cc1ccc(C2=Nn3c(nc4sc5c(c4c3=O)CCCC5)SC2)cc1`, the TGI in assay [1], in assay [2], in assay [3], in [4], in assay [5] and in [6] was above 100 µM in each case. The TGI in [7], in assay [8], in assay [9], in assay [10], in [11] and in assay [12] was above 100 µM each time. Further, the concentration for total growth inhibition (TGI) in [13] and in [14] was above 100 µM each time.
Regarding `CC1(C)N([O-])[N+](=O)C1(Br)c1ccccc1` (stereo not drawn), the TGI in [1], in assay [2], in assay [3], in assay [4], in assay [5] and in [6] was above 100 µM in each case. Besides, the TGI in assay [7], in assay [8], in assay [9], in assay [10], in [11] and in [13] was above 100 µM in each case. Also, the TGI in assay [15] and in assay [14] was above 100 µM in each case.
Turning to `CCOC(=O)CNC(=O)CNC(=O)CNC(=O)CNNc1c(OCc2ccccc2)c(=O)c1=O`, the TGI in assay [1], in [2], in assay [3], in [4], in assay [5] and in [6] was above 100 µM throughout. For the same molecule, the total growth inhibition concentration (TGI) in assay [7], in assay [8], in assay [9], in assay [10], in [11] and in assay [12] was above 100 µM in each case. The TGI in assay [13] and in [15] was above 100 µM in each case.
Regarding `C=C(C)CCN(C(=O)OC(C)(C)C)c1cc(C(C)C)co1`, the total growth inhibition concentration (TGI) was above 100 µM in assay [1]; above 100 µM in assay [2]; 99.6 µM in assay [3]; above 100 µM in [4]; above 100 µM in assay [5]; above 100 µM in assay [6]. Moreover, the TGI in assay [7], in [8], in assay [9], in [10], in assay [11] and in [13] was above 100 µM throughout. Further, the TGI in assay [15] and in [14] was above 100 µM in each case.
For the molecule `CCOC(=O)CON=c1c2ccccc2ccc2ccccc12`, the concentration for total growth inhibition (TGI) in assay [1], in [2], in assay [3], in [4], in assay [5] and in assay [6] was above 100 µM throughout. The TGI in assay [7], in assay [8], in assay [9], in [10], in [11] and in assay [13] was above 100 µM in each case. Further, the total growth inhibition concentration (TGI) in assay [15] and in assay [14] was above 100 µM throughout.
With `CCC1(CC)C(=O)NN(C(=O)c2ccc(Cl)cc2)C1=O`, the TGI in assay [1], in assay [2], in [3], in assay [4], in assay [5] and in assay [6] was above 100 µM each time. The total growth inhibition concentration (TGI) in [7], in [8], in [9], in assay [10], in assay [11] and in assay [12] was above 100 µM each time. Moreover, the concentration for total growth inhibition (TGI) in [13] and in assay [15] was above 100 µM throughout.
Turning to `CC(C(=O)O)C1Nc2ccccc2NC1=O` (stereo not drawn), the total growth inhibition concentration (TGI) in assay [1], in assay [2], in [3], in assay [4], in [5] and in assay [6] was above 100 µM in each case. Further, the TGI in [7], in [8], in [9], in [10], in assay [13] and in assay [15] was above 100 µM throughout. Further, the TGI in [14] is above 100 µM.
`N#CCN1CCN(CC#N)CCN(CC#N)CCN(CC#N)CC1`: the TGI in assay [1], in [2], in [3], in [4], in [5] and in assay [7] was above 100 µM throughout. For the same molecule, the concentration for total growth inhibition (TGI) in assay [8], in assay [9], in assay [10], in [11], in [12] and in assay [13] was above 100 µM throughout. In addition, the TGI in assay [15] and in assay [14] was above 100 µM throughout.
As to `Cc1ccc(/C=C2\CCCCCC2=O)cc1`, the TGI in assay [1], in assay [2], in assay [3], in assay [4], in assay [6] and in assay [7] was above 100 µM each time. In addition, the TGI in assay [8], in assay [9], in [10], in [11], in assay [12] and in [13] was above 100 µM throughout. The molecule also had a TGI in assay [15] above 100 µM.
With `O=C1/C(=C/c2ccc(OC(=O)c3ccc(Cl)cc3)cc2)CCC/C1=C\c1ccc(OC(=O)c2ccc(Cl)cc2)cc1`, the concentration for total growth inhibition (TGI) in [1], in [2], in assay [3], in assay [4], in assay [5] and in assay [6] was above 100 µM in each case. In addition, the TGI in assay [7], in assay [8], in [9], in assay [11], in [12] and in assay [13] was above 100 µM in each case. Moreover, the TGI in assay [15] and in assay [14] was above 100 µM in each case.
